In patent publication US6846845B2, “Heat shock protein inducer” (Eisai Co., Ltd., priority 2002, dated 2005):

Assays:
iNOS = iNOS induction in the heart after oral administration (Western blotting); type: in vivo, rat; details: oral 200 mg/kg, 24 hours after administration, FIG. 4(A)
Source text: Monoclonal IgG antibody cross-reactive to HSP70, HSP60 and HSP27 antibodies was purchased from Stressgen Biotechnologies Corporation ([…], Canada). Primary antibodies of nitric oxide synthase (NOS) or in other words inducible NOS (iNOS), endothelial NOS (eNOS) and neuronal NOS (nNOS) were purchased from Transduction Laboratories (Lexington, Ky.). The primary antibody of thioredoxin was kindly provided by Professor Yodoi of Kyoto University.
An emulsion of 100% by weight of geranylgeranylacetone (GGA) with 5% by weight of gum arabic and 0.008% by weight of tocopherol was given orally to the rats described above. The oral dosages were 50 mg/kg, 100 mg/kg, 200 mg/kg and 400 mg/kg (GGA groups). […] The vehicle was administered orally to the Control Group.
Next, the hearts were removed from the killed rats and frozen in liquid nitrogen. […]
The total protein concentration of the myocardium was quantified by the Bradford method (Bradford M M. A rapid and sensitive method for quantitation of microgram quantities of protein utilizing the principle of protein-dye binding. Anal Biochem 1976; 72:248-254). […] The proteins were detected by exposing the ECL cells with Hyperfilm (Amersham Pharmacia, Buckinghamshire, UK). Based on this, the amount of proteins on the immunoblots was quantified using National Institutes of Health (NIH) imaging software. […]

isolated perfused heart = test: Isolated perfused heart experiments (Langendorff, 20 min no-flow global ischemia, 30 min reperfusion), Example 2; type: in vivo, rat
Method: Male Sprague-Dawley rats (220-250 g) were used. GGA, as an emulsion with 5% gum arabic and 0.008% tocopherol, was given orally at a dose of 200 mg/kg. Rats were classified into 4 groups. FIG. 7 is a diagrammatic representation of experimental protocol. […] Twenty-four hours after oral administration of GGA or vehicle, rats were anesthetized (sodium pentobarbital, 50 mg/kg IP) and heparinized (500 IU/kg IP). Hearts were excised, immediately frozen in liquid nitrogen, and stored at −70° C. until use for Western blot analysis (n=4 for each group). To examine the cardiac function during ischemia and reperfusion, hearts of each group were prepared for isolated perfused experiments using Langendorff apparatus (n=7-9 for each group, FIG. 7).
Twenty-four hours after administration-of 200 mg/kg of GGA or vehicle, rats of 4 groups were heparinized (500 IU/kg, IP) and anesthetized with sodium pentobarbital (50 mg/kg, IP). Each heart was isolated and perfused retrogradely using the Langendorff method with Krebs-Henseleit buffer (pH 7.4, [in mM] 118 NaCl, 4.7 KCl, 2.5 CaCl2, 1.2 MgSO4, 1.2 KH2PO4, 25.0 Na2HCO3, 11.0 glucose) equilibrated with 95% O2-5% CO2 gas mixture at 36.5° C. at a constant pressure of 75 mm Hg. A water-filled latex balloon was inserted through the mitral orifice into the left ventricle (LV) and the LV end-diastolic pressure (LVEDP) was adjusted to 0-5 mm Hg. During the initial 10 min of constant pressure perfusion, the perfusion flow rate was determined for each heart, which was then perfused at a determined perfusion rate using a microtube pump while the heart was covered with water-jacketed glassware and the relative humidity maintained at 90% or more. Normothermic no-flow global ischemia was initiated for 20 min, followed by reperfusion for 30 min. The coronary effluent during the 30 min of reperfusion period was collected for measurement of creatine kinase content (released CK).
LV pressure was monitored using a pressure transducer to obtain the peak positive and negative first derivatives of LV pressure (dP/dtmax and dP/dtmin). […] Coronary perfusion pressure (CPP) was defined as the hydraulic pressure measured at the level of aortic cannulation. LV pressure, CPP and electrocardiogram were continuously recorded on a polygraph recorder (WS-681G, Nihon Kohden) and stored on a PCM data recorder (RD-111T, TEAC) for later analysis.
Data are expressed as mean ±SEM. Serial changes in LVDP, LVEDP, CPP, and dP/dt were analyzed by two-way analysis of variance (ANOVA) followed by the Bonferroni/Dunn test, unless otherwise specified. Comparisons among groups with respect to the hemodynamic parameters at baseline and the ratio of released CK to ventricular weight were analyzed by one-way ANOVA followed by the Bonferroni/Dunn test. […]

Question: Which “iNOS induction in the heart” value (iNOS) does the source give for `CC(=O)CCC=C(C)CCC=C(C)CCC=C(C)CCC=C(C)C` [GGA, 6, 10, 14, 18-tetramethyl-5,9, 13, 17-nonadecatetraen-2-one] here?
Answer: neither iNOS nor eNOS was induced

Question: What about the “released creatine kinase (CK) relative to ventricular weight” value (isolated perfused heart; 30-min reperfusion period after 20 min ischemia, FIG. 12) of the same molecule?
Answer: lower

Question: What about the “recovery of LVDP, LVEDP and dP/dt on reperfusion versus CNT group” value (isolated perfused heart; 20 min no-flow global ischemia, 30 min reperfusion, FIG. 11) of the same molecule?
Answer: greater
